Results published in patent publication US20140155635A1, “RESORCYLIC ACID LACTONE COMPOUNDS” (KOREA INSTITUTE OF SCIENCE AND TECHNOLOGY, priority 2012, published 2014).

Assays:
Molm-14 = assay: Suppressive activity against growth of AML cells (MTT assay); type: cell-based; details: Homo sapiens; Molm-14 cancer cell line
MV4-11 cell line = assay: as above; type: cell-based; details: Homo sapiens, MV4-11 cancer cell line, 48 hrs treatment
Description: The MV4-11 cell line was grown at 37° C. in RPMI medium [Gibco, New York, USA/10% FBS (Gibco), containing 1% penicillin/streptomycin (Gibco)] in a 5% CO2 atmosphere. The grown MV4-11 cell line was withdrawn into PBS, seeded at a density of 3×10^4 cells/well into 96-well plates, and cultured at 37° C. for 24 hrs in a 5% CO2 atmosphere. Various concentrations of the compound (8 points) were prepared by serial dilution in 10 mM DMSO, and the MV4-11 cell line was treated with various concentrations of the compound for 48 hrs. To assess cell viability, 3-(4,5-dimethylthiazol-2-yl)-2,5-diphenyl tetrazolium bromide (MTT) assay (CellTiter 96 Assay, Promega) was performed.
Briefly, the dye was added in an amount of 15 μL to each well and incubated for 2 hrs. Then, each well was incubated with 100 μL of a stop solution for 24 hrs, followed by reading absorbance at 590 nm on EnVision2103. GI50 was calculated using GraphPad Prism 4.0.

FLT1/VEGFR1 = FLT1/VEGFR1 (Homo sapiens, UniProt P17948); assay: Assay for inhibitory activity against kinase; details: read-out: % Inhibition (1 uM)
PDGFRb = PDGFRb (Homo sapiens, UniProt P09619); assay: Assay for inhibitory activity against kinase; details: read-out: % Inhibition (1 uM)
[1] = tested on: serine/threonine kinase MAPK (mitogen-activated protein kinase); details: cited from earlier work
VEGFR 2 = VEGFR 2 (Homo sapiens, UniProt P35968); details: cited from earlier work
FLT 3/4 = details: cited from earlier work
MEK 1/2 = details: cited from earlier work

Sequence of FLT1/VEGFR1 (P17948 27-1338): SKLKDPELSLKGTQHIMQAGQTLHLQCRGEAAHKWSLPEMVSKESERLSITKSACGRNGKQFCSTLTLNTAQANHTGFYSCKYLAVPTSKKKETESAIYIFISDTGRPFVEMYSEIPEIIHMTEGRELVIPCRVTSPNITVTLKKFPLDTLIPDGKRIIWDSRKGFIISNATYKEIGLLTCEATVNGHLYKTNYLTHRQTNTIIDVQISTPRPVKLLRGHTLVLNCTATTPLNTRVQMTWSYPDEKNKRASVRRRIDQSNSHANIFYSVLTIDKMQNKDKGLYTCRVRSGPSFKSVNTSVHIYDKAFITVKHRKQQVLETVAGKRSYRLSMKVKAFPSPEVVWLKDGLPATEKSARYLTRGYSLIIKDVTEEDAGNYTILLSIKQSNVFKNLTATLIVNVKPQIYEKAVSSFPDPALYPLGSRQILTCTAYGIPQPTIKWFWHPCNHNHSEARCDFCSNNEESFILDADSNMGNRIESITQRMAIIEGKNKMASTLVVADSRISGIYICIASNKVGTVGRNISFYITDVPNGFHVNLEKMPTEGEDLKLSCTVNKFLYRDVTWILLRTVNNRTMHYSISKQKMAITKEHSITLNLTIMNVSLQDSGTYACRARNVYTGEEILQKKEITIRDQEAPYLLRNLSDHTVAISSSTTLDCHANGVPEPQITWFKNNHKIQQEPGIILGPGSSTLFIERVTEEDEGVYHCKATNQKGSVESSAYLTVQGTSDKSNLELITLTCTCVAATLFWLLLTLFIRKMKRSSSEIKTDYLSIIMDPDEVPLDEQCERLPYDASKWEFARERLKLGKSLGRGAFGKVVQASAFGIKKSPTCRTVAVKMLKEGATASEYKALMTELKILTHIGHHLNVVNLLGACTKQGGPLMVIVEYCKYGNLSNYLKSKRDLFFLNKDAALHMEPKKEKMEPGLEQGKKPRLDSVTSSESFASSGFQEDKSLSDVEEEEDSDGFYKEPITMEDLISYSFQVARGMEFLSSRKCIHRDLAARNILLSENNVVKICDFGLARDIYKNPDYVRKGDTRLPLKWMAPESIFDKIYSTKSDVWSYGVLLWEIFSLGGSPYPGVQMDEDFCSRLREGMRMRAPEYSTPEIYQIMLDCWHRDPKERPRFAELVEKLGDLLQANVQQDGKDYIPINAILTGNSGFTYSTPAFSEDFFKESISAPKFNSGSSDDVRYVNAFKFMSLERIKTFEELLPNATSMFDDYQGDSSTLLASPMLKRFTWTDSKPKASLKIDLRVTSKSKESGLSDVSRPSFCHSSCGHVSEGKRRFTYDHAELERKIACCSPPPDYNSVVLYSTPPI
Sequence of PDGFRb (P09619 33-1106): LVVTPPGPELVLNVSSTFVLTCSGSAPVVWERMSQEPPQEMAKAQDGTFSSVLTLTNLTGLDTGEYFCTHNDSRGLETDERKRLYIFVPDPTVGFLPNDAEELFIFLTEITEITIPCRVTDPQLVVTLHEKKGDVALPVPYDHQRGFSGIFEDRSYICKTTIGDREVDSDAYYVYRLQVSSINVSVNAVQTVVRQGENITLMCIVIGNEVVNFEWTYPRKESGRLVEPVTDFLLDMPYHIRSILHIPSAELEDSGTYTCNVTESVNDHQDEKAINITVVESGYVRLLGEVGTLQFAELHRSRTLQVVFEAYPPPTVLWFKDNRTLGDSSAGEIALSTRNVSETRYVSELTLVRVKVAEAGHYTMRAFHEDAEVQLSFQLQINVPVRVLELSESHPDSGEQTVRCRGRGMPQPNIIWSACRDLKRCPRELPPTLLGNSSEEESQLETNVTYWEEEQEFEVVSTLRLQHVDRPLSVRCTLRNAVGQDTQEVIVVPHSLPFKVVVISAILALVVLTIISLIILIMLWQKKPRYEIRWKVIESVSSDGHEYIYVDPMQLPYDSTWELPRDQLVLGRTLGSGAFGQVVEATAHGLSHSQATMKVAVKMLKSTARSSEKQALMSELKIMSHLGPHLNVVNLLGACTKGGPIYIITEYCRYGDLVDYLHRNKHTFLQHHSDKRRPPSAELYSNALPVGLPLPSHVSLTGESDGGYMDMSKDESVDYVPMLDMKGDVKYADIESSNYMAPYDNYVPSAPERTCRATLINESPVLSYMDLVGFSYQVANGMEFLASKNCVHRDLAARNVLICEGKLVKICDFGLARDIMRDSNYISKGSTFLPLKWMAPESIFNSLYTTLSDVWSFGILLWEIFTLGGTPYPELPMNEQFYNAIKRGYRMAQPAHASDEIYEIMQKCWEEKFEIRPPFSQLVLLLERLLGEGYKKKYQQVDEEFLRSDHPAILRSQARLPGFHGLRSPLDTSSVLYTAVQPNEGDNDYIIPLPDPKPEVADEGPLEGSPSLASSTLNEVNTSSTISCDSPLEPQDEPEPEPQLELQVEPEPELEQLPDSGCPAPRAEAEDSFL
Sequence of VEGFR 2 (P35968 20-1356, species assumed): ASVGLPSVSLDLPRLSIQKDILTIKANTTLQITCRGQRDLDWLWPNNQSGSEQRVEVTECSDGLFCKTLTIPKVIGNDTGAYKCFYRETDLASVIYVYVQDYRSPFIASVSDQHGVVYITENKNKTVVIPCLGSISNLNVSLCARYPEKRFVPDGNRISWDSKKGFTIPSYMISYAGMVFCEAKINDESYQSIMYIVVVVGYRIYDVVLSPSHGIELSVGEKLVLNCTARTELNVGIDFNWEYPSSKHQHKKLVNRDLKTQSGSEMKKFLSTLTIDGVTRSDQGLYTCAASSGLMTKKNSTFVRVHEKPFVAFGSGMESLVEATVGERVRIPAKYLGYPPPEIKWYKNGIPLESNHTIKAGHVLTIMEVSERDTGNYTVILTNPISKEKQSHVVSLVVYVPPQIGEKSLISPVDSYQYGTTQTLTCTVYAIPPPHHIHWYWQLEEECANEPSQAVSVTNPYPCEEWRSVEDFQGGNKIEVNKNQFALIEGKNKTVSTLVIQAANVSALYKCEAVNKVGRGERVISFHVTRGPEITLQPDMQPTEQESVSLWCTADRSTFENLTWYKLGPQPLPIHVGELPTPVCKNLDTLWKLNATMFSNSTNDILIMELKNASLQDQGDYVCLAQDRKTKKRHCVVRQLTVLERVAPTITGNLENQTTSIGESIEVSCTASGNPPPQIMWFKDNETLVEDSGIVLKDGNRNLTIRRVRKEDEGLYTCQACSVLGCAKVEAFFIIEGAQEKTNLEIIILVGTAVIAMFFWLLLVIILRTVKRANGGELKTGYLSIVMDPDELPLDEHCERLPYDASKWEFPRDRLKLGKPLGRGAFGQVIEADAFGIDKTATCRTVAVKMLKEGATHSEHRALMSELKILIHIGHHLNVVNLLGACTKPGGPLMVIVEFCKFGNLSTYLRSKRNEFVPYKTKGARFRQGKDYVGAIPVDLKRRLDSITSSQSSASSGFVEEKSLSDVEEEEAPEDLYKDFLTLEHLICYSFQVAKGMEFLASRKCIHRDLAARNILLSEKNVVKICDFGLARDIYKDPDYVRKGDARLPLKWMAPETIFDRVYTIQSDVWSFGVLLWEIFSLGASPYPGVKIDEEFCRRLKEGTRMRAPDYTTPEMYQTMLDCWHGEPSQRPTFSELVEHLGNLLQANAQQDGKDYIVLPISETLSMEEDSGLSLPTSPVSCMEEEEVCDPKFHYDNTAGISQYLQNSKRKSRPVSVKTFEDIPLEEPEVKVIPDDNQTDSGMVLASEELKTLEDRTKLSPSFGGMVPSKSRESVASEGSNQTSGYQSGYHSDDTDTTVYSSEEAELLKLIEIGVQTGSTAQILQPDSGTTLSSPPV

COc1cc(O)c2c(c1)-c1cccc(c1)[C@@H](O)[C@H](O)C(=O)/C=C\C[C@H](C)OC2=O [Cpd. 24]
GI50 (Molm-14): 0.09 µM | GI50 (MV4-11 cell line): 0.03 µM | inhibition at 1 µM (FLT1/VEGFR1): 64% | inhibition at 1 µM (PDGFRb): 70%

COc1cc(O)c2c(c1)CCC[C@H](O)[C@H](O)C(=O)/C=C\C[C@H](C)OC2=O [Compound L-783277]
inhibition of MAPK (mode) [1]: irreversible ATP competitive inhibitor | inhibitory activity against VEGFR 2 (VEGFR 2): potent inhibitory activity | inhibitory activity against FLT 3/4 (FLT 3/4): potent inhibitory activity | inhibitory activity against MEK 1/2 (MEK 1/2): potent inhibitory activity
